PubChem BioAssay (NCI)
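A five-concentration, 48-hour dose response in 96-well plates underlies each endpoint, interpolated linearly between surrounding concentrations. TGI marks complete inhibition of growth.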

What was measured:
Test in all cases: growth of human tumour cells (NCI), 48 h
HCC-2998 colon = test system: HCC-2998 colon
TK-10 renal = test system: TK-10 renal
OVCAR-5 ovarian = test system: OVCAR-5 ovarian
HS 578T breast = test system: HS 578T breast
SK-MEL-28 melanoma = test system: SK-MEL-28 melanoma
NCI-H23 lung = test system: NCI-H23 lung
MCF7 breast = test system: MCF7 breast
786-0 renal = test system: 786-0 renal
MALME-3M melanoma = test system: MALME-3M melanoma
HT29 colon = test system: HT29 colon
SF-539 CNS = test system: SF-539 CNS
SK-MEL-5 melanoma = test system: SK-MEL-5 melanoma
HCT-116 colon = test system: HCT-116 colon
SW-620 colon = test system: SW-620 colon
PC-3 prostate = test system: PC-3 prostate
SF-295 CNS = test system: SF-295 CNS
DU-145 prostate = test system: DU-145 prostate
MDA-MB-231 breast = test system: MDA-MB-231 breast
HL-60(TB) leukemia = test system: HL-60(TB) leukemia
UACC-257 melanoma = test system: UACC-257 melanoma
OVCAR-4 ovarian = test system: OVCAR-4 ovarian
MDA-N = test system: MDA-N
MDA-MB-435 = test system: MDA-MB-435
HOP-62 NSCLC = test system: HOP-62 NSCLC
HOP-92 NSCLC = test system: HOP-92 NSCLC
BT-549 breast = test system: BT-549 breast
NCI-H522 lung = test system: NCI-H522 lung
M14 melanoma = test system: M14 melanoma
RPMI-8226 leukemia = test system: RPMI-8226 leukemia
COLO 205 colon = test system: COLO 205 colon
K-562 leukemia = test system: K-562 leukemia
ACHN renal = test system: ACHN renal
KM12 colon = test system: KM12 colon
OVCAR-8 ovarian = test system: OVCAR-8 ovarian
CAKI-1 renal = test system: CAKI-1 renal
SNB-19 CNS = test system: SNB-19 CNS
HCT-15 colon = test system: HCT-15 colon
LOX IMVI melanoma = test system: LOX IMVI melanoma
NCI/ADR-RES ovarian = test system: NCI/ADR-RES ovarian
OVCAR-3 ovarian = test system: OVCAR-3 ovarian
SN12C renal = test system: SN12C renal
SK-OV-3 ovarian = test system: SK-OV-3 ovarian
SR leukemia = test system: SR leukemia
U251 CNS = test system: U251 CNS
A549 NSCLC = test system: A549 NSCLC
MOLT-4 leukemia = test system: MOLT-4 leukemia
SF-268 CNS = test system: SF-268 CNS
SNB-75 CNS = test system: SNB-75 CNS
EKVX NSCLC = test system: EKVX NSCLC
IGROV1 ovarian = test system: IGROV1 ovarian
NCI-H460 lung = test system: NCI-H460 lung
A498 renal = test system: A498 renal
UO-31 renal = test system: UO-31 renal
UACC-62 melanoma = test system: UACC-62 melanoma
RXF 393 renal = test system: RXF 393 renal
NCI-H226 lung = test system: NCI-H226 lung
SK-MEL-2 melanoma = test system: SK-MEL-2 melanoma
CCRF-CEM leukemia = test system: CCRF-CEM leukemia

SMILES: COc1nc(N)c(C#N)c(C#N)c1C#N
- TGI (HCC-2998 colon): > 10 µM
- TGI (TK-10 renal): > 10 µM
- TGI (OVCAR-5 ovarian): > 10 µM
- TGI (HS 578T breast): > 10 µM
- TGI (SK-MEL-28 melanoma): > 10 µM
- TGI (NCI-H23 lung): > 10 µM
- TGI (MCF7 breast): > 10 µM
- TGI (786-0 renal): > 10 µM
- TGI (MALME-3M melanoma): > 10 µM
- TGI (HT29 colon): > 10 µM
- TGI (SF-539 CNS): > 10 µM
- TGI (SK-MEL-5 melanoma): > 10 µM
- TGI (HCT-116 colon): > 10 µM
- TGI (SW-620 colon): > 10 µM
- TGI (PC-3 prostate): > 10 µM
- TGI (SF-295 CNS): > 10 µM
- TGI (DU-145 prostate): > 10 µM
- TGI (MDA-MB-231 breast): > 10 µM
- TGI (HL-60(TB) leukemia): > 10 µM
- TGI (UACC-257 melanoma): > 10 µM
- TGI (OVCAR-4 ovarian): > 10 µM
- TGI (MDA-N): > 10 µM
- TGI (MDA-MB-435): > 10 µM
- TGI (HOP-62 NSCLC): > 10 µM
- TGI (HOP-92 NSCLC): > 10 µM
- TGI (BT-549 breast): > 10 µM
- TGI (NCI-H522 lung): > 10 µM
- TGI (M14 melanoma): > 10 µM
- TGI (RPMI-8226 leukemia): > 10 µM
- TGI (COLO 205 colon): > 10 µM
- TGI (K-562 leukemia): > 10 µM
- TGI (ACHN renal): > 10 µM
- TGI (KM12 colon): > 10 µM
- TGI (OVCAR-8 ovarian): > 10 µM
- TGI (CAKI-1 renal): > 10 µM
- TGI (SNB-19 CNS): > 10 µM
- TGI (HCT-15 colon): > 10 µM
- TGI (LOX IMVI melanoma): > 10 µM
- TGI (NCI/ADR-RES ovarian): > 10 µM
- TGI (OVCAR-3 ovarian): > 10 µM
- TGI (SN12C renal): > 10 µM
- TGI (SK-OV-3 ovarian): > 10 µM
- TGI (SR leukemia): > 10 µM
- TGI (U251 CNS): > 10 µM
- TGI (A549 NSCLC): > 10 µM
- TGI (MOLT-4 leukemia): > 10 µM
- TGI (SF-268 CNS): > 10 µM
- TGI (SNB-75 CNS): > 10 µM

SMILES: CC(=O)NCCc1c(-c2[nH]c3ccccc3c2CCNC(C)=O)[nH]c2ccccc12
- TGI (HCC-2998 colon): > 100 µM
- TGI (TK-10 renal): > 100 µM
- TGI (EKVX NSCLC): > 100 µM
- TGI (IGROV1 ovarian): > 100 µM
- TGI (OVCAR-5 ovarian): > 100 µM
- TGI (HS 578T breast): > 100 µM
- TGI (SK-MEL-28 melanoma): > 100 µM
- TGI (NCI-H23 lung): > 100 µM
- TGI (MCF7 breast): > 100 µM
- TGI (786-0 renal): > 100 µM
- TGI (NCI-H460 lung): > 100 µM
- TGI (HT29 colon): > 100 µM
- TGI (SF-539 CNS): > 100 µM
- TGI (SK-MEL-5 melanoma): > 100 µM
- TGI (HCT-116 colon): > 100 µM
- TGI (SW-620 colon): > 100 µM
- TGI (A498 renal): > 100 µM
- TGI (PC-3 prostate): > 100 µM
- TGI (SF-295 CNS): > 100 µM
- TGI (DU-145 prostate): > 100 µM
- TGI (MDA-MB-231 breast): > 100 µM
- TGI (UACC-257 melanoma): > 100 µM
- TGI (OVCAR-4 ovarian): > 100 µM
- TGI (MDA-N): > 100 µM
- TGI (MDA-MB-435): > 100 µM
- TGI (UO-31 renal): > 100 µM
- TGI (UACC-62 melanoma): > 100 µM
- TGI (HOP-62 NSCLC): > 100 µM
- TGI (RXF 393 renal): > 100 µM
- TGI (NCI-H226 lung): > 100 µM
- TGI (HOP-92 NSCLC): > 100 µM
- TGI (BT-549 breast): > 100 µM
- TGI (SK-MEL-2 melanoma): > 100 µM
- TGI (RPMI-8226 leukemia): > 100 µM
- TGI (COLO 205 colon): > 100 µM
- TGI (K-562 leukemia): > 100 µM
- TGI (ACHN renal): > 100 µM
- TGI (OVCAR-8 ovarian): > 100 µM
- TGI (CAKI-1 renal): > 100 µM
- TGI (SNB-19 CNS): > 100 µM
- TGI (HCT-15 colon): > 100 µM
- TGI (LOX IMVI melanoma): > 100 µM
- TGI (NCI/ADR-RES ovarian): > 100 µM
- TGI (OVCAR-3 ovarian): > 100 µM
- TGI (SN12C renal): > 100 µM
- TGI (SK-OV-3 ovarian): > 100 µM
- TGI (SR leukemia): > 100 µM
- TGI (U251 CNS): > 100 µM
- TGI (CCRF-CEM leukemia): > 100 µM
- TGI (A549 NSCLC): > 100 µM
- TGI (MOLT-4 leukemia): > 100 µM
- TGI (SF-268 CNS): > 100 µM
- TGI (SNB-75 CNS): > 100 µM

SMILES: CC12OC1(C)C1C(=O)OCC1C2=O (configuration not stated)
- TGI (HCC-2998 colon): > 100 µM
- TGI (TK-10 renal): > 100 µM
- TGI (IGROV1 ovarian): > 100 µM
- TGI (OVCAR-5 ovarian): > 100 µM
- TGI (HS 578T breast): 94.1 µM
- TGI (SK-MEL-28 melanoma): > 100 µM
- TGI (NCI-H23 lung): > 100 µM
- TGI (MCF7 breast): > 100 µM
- TGI (786-0 renal): > 100 µM
- TGI (MALME-3M melanoma): 69.7 µM
- TGI (NCI-H460 lung): > 100 µM
- TGI (HT29 colon): > 100 µM
- TGI (SF-539 CNS): > 100 µM
- TGI (SK-MEL-5 melanoma): > 100 µM
- TGI (HCT-116 colon): > 100 µM
- TGI (SW-620 colon): > 100 µM
- TGI (A498 renal): > 100 µM
- TGI (PC-3 prostate): > 100 µM
- TGI (SF-295 CNS): > 100 µM
- TGI (DU-145 prostate): > 100 µM
- TGI (MDA-MB-231 breast): > 100 µM
- TGI (HL-60(TB) leukemia): 54.3 µM
- TGI (UACC-257 melanoma): > 100 µM
- TGI (OVCAR-4 ovarian): > 100 µM
- TGI (MDA-N): > 100 µM
- TGI (MDA-MB-435): > 100 µM
- TGI (UO-31 renal): > 100 µM
- TGI (UACC-62 melanoma): > 100 µM
- TGI (HOP-62 NSCLC): > 100 µM
- TGI (RXF 393 renal): 84.6 µM
- TGI (NCI-H226 lung): > 100 µM
- TGI (HOP-92 NSCLC): > 100 µM
- TGI (BT-549 breast): > 100 µM
- TGI (NCI-H522 lung): 27.9 µM
- TGI (SK-MEL-2 melanoma): > 100 µM
- TGI (M14 melanoma): > 100 µM
- TGI (RPMI-8226 leukemia): > 100 µM
- TGI (COLO 205 colon): > 100 µM
- TGI (K-562 leukemia): 72.4 µM
- TGI (ACHN renal): > 100 µM
- TGI (KM12 colon): > 100 µM
- TGI (OVCAR-8 ovarian): > 100 µM
- TGI (CAKI-1 renal): 71.5 µM
- TGI (SNB-19 CNS): > 100 µM
- TGI (HCT-15 colon): > 100 µM
- TGI (LOX IMVI melanoma): > 100 µM
- TGI (NCI/ADR-RES ovarian): > 100 µM
- TGI (OVCAR-3 ovarian): > 100 µM
- TGI (SN12C renal): 55.4 µM
- TGI (SK-OV-3 ovarian): > 100 µM
- TGI (SR leukemia): 69.2 µM
- TGI (U251 CNS): > 100 µM
- TGI (CCRF-CEM leukemia): 36 µM
- TGI (A549 NSCLC): > 100 µM
- TGI (SF-268 CNS): > 100 µM
- TGI (SNB-75 CNS): > 100 µM
